Our source for the IC50 values is patent US8901118B2, “Compounds and methods for kinase modulation, and indications therefor” (Plexxikon Inc., priority 2010, dated 2014).

One test deals with T1, CYP1A2 (Homo sapiens, UniProt P05177).
T1 sequence (P05177 1-516): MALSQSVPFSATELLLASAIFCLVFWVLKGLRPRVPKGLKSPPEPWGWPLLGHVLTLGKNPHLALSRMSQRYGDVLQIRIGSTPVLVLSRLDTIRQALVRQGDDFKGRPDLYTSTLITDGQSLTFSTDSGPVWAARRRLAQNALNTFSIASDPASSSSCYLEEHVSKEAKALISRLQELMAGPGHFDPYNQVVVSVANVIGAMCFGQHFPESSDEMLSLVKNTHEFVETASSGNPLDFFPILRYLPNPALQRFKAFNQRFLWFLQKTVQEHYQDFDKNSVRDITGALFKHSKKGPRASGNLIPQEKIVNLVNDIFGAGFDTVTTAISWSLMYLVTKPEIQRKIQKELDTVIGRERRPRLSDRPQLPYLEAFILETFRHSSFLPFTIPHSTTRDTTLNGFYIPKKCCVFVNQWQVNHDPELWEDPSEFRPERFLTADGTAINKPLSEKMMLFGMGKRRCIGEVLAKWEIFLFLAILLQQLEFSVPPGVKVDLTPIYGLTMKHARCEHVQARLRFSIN
As to the kind of experiment: CYP1A2 inhibition (fluorescent substrate CEC). The note with it: read-out: Cyp IC50 1A2. The class given is in vitro ADME. In a few lines:
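Test compounds, 10-point 1:1 serial dilutions in NADPH-regenerating cofactor mix, were preincubated 10 min at 37° C before recombinant enzyme and fluorogenic substrate reactions at 37° C (CYP1A2 15 min; CYP2C9 45 min; CYP2C19, 2D6 30 min). Product fluorescence was read at 409 ex with 460 em (1A2, 2C19) or 530 em (2C9, 2D6), and IC50 fitted from signal versus concentration.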

The next test has as its target T2, BCR-KIT BaF3 cells (Homo sapiens, UniProt P10721).
T2 construct: fused on or other part: P11274 (Breakpoint cluster region protein)
As to the kind of experiment: BaF3 BCR-KIT cell proliferation assay (ATPlite). The class given is cell-based. The note with it: read-out: Inhibition of Cell Proliferation IC50, BCR/BaF3 Kit. Put shortly:
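BaF3 cells expressing BCR fusions were plated at 10,000 cells/well without IL-3, and MV-4-11 cells at 25,000 cells/well. Cells were treated the next day with an 8-point 1:3 dilution series (top 10 μM final) and incubated 3 days at 37 °C. ATPlite luminescence gave cell number, from which IC50 was fitted.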
On the technique in general: In ATP-based viability assays light output follows the ATP content of the culture.

T2 sequence (P10721 589-937): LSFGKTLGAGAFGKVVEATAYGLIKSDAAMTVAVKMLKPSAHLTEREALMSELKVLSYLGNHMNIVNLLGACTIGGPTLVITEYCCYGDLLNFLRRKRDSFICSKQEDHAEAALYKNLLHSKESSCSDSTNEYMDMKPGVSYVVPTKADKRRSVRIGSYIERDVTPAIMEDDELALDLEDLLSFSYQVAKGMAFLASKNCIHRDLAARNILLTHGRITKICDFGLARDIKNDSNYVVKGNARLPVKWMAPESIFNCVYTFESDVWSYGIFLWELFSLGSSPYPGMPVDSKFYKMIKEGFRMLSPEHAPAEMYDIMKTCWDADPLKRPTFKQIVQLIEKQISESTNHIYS

Take `CCN1CCC(Nc2ncnc3[nH]cc(C(=O)c4ccc(Nc5ccc(OC)nc5)nc4F)c23)CC1` [Compound P-4074, [4-[(1-ethyl-4-piperidyl)amino]-7H-pyrrolo[2,3-d]pyrimidin-5-yl]-[2-fluoro-6-[(6-methoxy-3-pyridyl)amino]-3-pyridyl]methanone]: the IC50 on CYP1A2 was over 10 µM; at BCR-KIT BaF3 cells, under 1 µM.

In the case of `CCc1ccc(Nc2ccc(C(=O)c3c[nH]c4ncnc(NCCCOC)c34)c(F)n2)cn1` [Compound P-4098, [6-[(6-ethyl-3-pyridyl)amino]-2-fluoro-3-pyridyl]-[4-(3-methoxypropylamino)-7H-pyrrolo[2,3-d]pyrimidin-5-yl]methanone], the IC50 is under 5 µM on CYP1A2 and under 0.1 µM at BCR-KIT BaF3 cells.

As for `COc1ccc(Nc2ccc(C(=O)c3c[nH]c4ncnc(N5CCCCC5)c34)c(F)n2)cn1` [Compound P-4069, [2-fluoro-6-[(6-methoxy-3-pyridyl)amino]-3-pyridyl]-[4-(1-piperidyl)-7H-pyrrolo[2,3-d]pyrimidin-5-yl]methanone], the values for the IC50 on CYP1A2 and at BCR-KIT BaF3 cells were over 10 µM and over 1 µM, respectively.

For `CCc1ccc(Nc2ccc(C(=O)c3c[nH]c4ncnc(NCCOC)c34)c(F)n2)cn1` [Compound P-4119, [6-[(6-ethyl-3-pyridyl)amino]-2-fluoro-3-pyridyl]-[4-(2-methoxyethylamino)-7H-pyrrolo[2,3-d]pyrimidin-5-yl]methanone], the IC50 is over 10 µM on CYP1A2 and under 0.1 µM on BCR-KIT BaF3 cells.

Turning to `CCNc1ncnc2[nH]cc(C(=O)c3ccc(Nc4ccc(C5CC5)nc4)nc3F)c12` [Compound P-4060, [6-[(6-cyclopropyl-3-pyridyl)amino]-2-fluoro-3-pyridyl]-[4-(ethylamino)-7H-pyrrolo[2,3-d]pyrimidin-5-yl]methanone], the figures for the IC50 on CYP1A2 and on BCR-KIT BaF3 cells were over 10 µM and under 0.1 µM, respectively.

For `CCCNc1ncnc2[nH]cc(C(=O)c3ccc(Nc4ccc(C)nc4)nc3F)c12` [Compound P-4114, [2-fluoro-6-[(6-methyl-3-pyridyl)amino]-3-pyridyl]-[4-(propylamino)-7H-pyrrolo[2,3-d]pyrimidin-5-yl]methanone], the IC50 is over 10 µM at CYP1A2 and under 1 µM on BCR-KIT BaF3 cells.

Turning to `O=C(c1ccc(NC2CCC(F)(F)CC2)nc1F)c1c[nH]c2ncnc(NCC(F)(F)F)c12` [Compound P-4061, [6-[(4,4-difluorocyclohexyl)amino]-2-fluoro-3-pyridyl]-[4-(2,2,2-trifluoroethylamino)-7H-pyrrolo[2,3-d]pyrimidin-5-yl]methanone], the IC50 on CYP1A2 is over 10 µM; at BCR-KIT BaF3 cells, over 1 µM.

Regarding `CNc1ncnc2[nH]cc(C(=O)c3ccc(NC4CCCCC4)nc3Cl)c12` [Compound P-4110, [2-chloro-6-(cyclohexylamino)-3-pyridyl]-[4-(methylamino)-7H-pyrrolo[2,3-d]pyrimidin-5-yl]methanone], the IC50 at CYP1A2 is under 5 µM; at BCR-KIT BaF3 cells, under 1 µM.
